Results published in PubChem BioAssay (NCI).
Values joined by “and” are separate entries in the source; they are usually repeats but may differ in a detail not shown here. Equal values may be shown once.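 Cultured in 96-well plates, cells were exposed to test compound for 48 hours across five concentrations. GI50 = concentration required for 50% inhibition of growth. TGI is the concentration that stops growth completely.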

Assays:
Experiment in all cases: inhibition of tumour cell growth, NCI panel, 48 h
HL-60(TB) leukemia = system: HL-60(TB) leukemia
M14 melanoma = system: M14 melanoma
NCI-H23 lung = system: NCI-H23 lung
NCI-H460 lung = system: NCI-H460 lung
OVCAR-4 ovarian = system: OVCAR-4 ovarian
SK-OV-3 ovarian = system: SK-OV-3 ovarian
TK-10 renal = system: TK-10 renal
UACC-257 melanoma = system: UACC-257 melanoma
UACC-62 melanoma = system: UACC-62 melanoma
UO-31 renal = system: UO-31 renal

| SMILES | GI50 (HL-60(TB) leukemia) [µM] | TGI (HL-60(TB) leukemia) | GI50 (M14 melanoma) [µM] | TGI (M14 melanoma) [µM] | GI50 (NCI-H23 lung) [µM] | TGI (NCI-H23 lung) [µM] | GI50 (NCI-H460 lung) [µM] | TGI (NCI-H460 lung) | GI50 (OVCAR-4 ovarian) [µM] | TGI (OVCAR-4 ovarian) [µM] | GI50 (SK-OV-3 ovarian) [µM] | TGI (SK-OV-3 ovarian) | GI50 (TK-10 renal) [µM] | TGI (TK-10 renal) [µM] | GI50 (UACC-257 melanoma) [µM] | TGI (UACC-257 melanoma) [µM] | GI50 (UACC-62 melanoma) [µM] | TGI (UACC-62 melanoma) | GI50 (UO-31 renal) [µM] | TGI (UO-31 renal) [µM] |
| --- | --- | --- | --- | --- | --- | --- | --- | --- | --- | --- | --- | --- | --- | --- | --- | --- | --- | --- | --- | --- |
| COc1ccccc1CNCCCN1C(=O)c2ccc3c4c(ccc(c24)C1=O)C(=O)N(CCCN)C3=O | 0.826 | 2.54 µM | 0.833 | 2.34 | 0.94 | 3.74 | 0.553 | 2.16 µM | 0.23 | 0.843 | 2.53 | 7.18 µM | 2.28 | 7.89 | 0.74 | 2.27 | 0.422 | 1.56 µM | 1.96 | 5.35 |
| Cc1nn(C)c(COc2ccc(N3CCN(S(=O)(=O)N(C)C)CC3)cc2)c1-c1cccc2c(CCCOc3cccc4ccccc34)c(C(=O)O)n(CCN3CCOCC3)c12 | 2.45 | 6.07 µM | 2.28 | 5.32 | 3.54 | 14.7 | 3.17 | 11.1 µM | 3.4 | 14.1 | 2.64 | 10.3 µM | 3.47 | 15.5 | 2.91 | 9.52 |  |  | 6.13 | 20.3 |
| COC(=O)C1=C(C)NC(C)=C(C(=O)OCC(C)C)C1c1ccccc1[N+](=O)[O-] (stereo unspecified) | 2.73 | 9.46 µM | 2.9 | 8.21 | 3.47 | 16.5 | 3.6 | 15.2 µM | 2.32 | 11.8 | 4.65 | 17.4 µM | 4.11 | 13 | 3.71 | 12.5 | 2.28 | 11.2 µM | 1.73 | 7.07 |
| CNC(=O)OCc1c2ccncc2c(C)c2c1[nH]c1ccc(OC)cc12 |  | 0.623 µM |  | 1.81 |  |  |  | 1.3 µM |  | 1.13 |  | 0.866 µM |  | > 100 |  |  |  | 0.454 µM |  | 0.395 |
| COC(=O)c1cc2ccccc2c2c3c(ccc12)OCO3 |  | > 1000 µM | 474 | > 1000 | 161 | > 1000 | 290 | > 1000 µM | 22.3 | 133 | 45.8 | 357 µM | 43.8 | 325 | 199 | > 1000 | 40.1 | > 1000 µM | 224 | > 1000 |
| CC1=C(CCC(C)NCc2ccc(OCCCN3CCCCC3)cc2)C(C)(C)CCC1 (stereo unspecified) | 2.14 | 4.2 µM | 0.214 | 0.468 | 1.73 | 3.82 | 1.53 | 3.28 µM | 1.99 | 5.5 | 2.06 | 3.76 µM | 1.69 | 3.19 | 2.2 | 4.03 | 1.94 | 3.73 µM | 1.56 | 2.97 |
| C[CH2][Sn]([CH2]C)([O]C(=O)c1ccccc1F)[O][Sn]([CH2]C)([CH2]C)[O]C(=O)c1ccccc1F | 43.3 | > 75.7 µM | 26.5 | > 57.2 | 15.8 | 33.6 | > 54 | > 100 µM | > 51.7 | > 82.8 | > 50.5 | > 90.3 µM | 18 | 32.1 | 18.4 | 35.4 | 18.1 | 35.1 µM | > 72.4 | > 100 |
| O=c1c(O)c(-c2ccc(O)c(O)c2)oc2cc(O)cc(O)c12 | 10.9 | 65.3 µM and 47.8 µM | 17.3 | > 100 | 9.65 | 50 | 6.73 | 66.9 µM and > 100 µM | 33.3 | > 100 | 18.3 | 68.5 µM and > 100 µM | 49.4 | > 100 | 37.4 | > 100 | 4.74 | 25.5 µM and > 100 µM | 8.48 | > 100 |
| Cc1[nH]c2ccc(F)cc2c1-c1nc2c3cccnc3c3ncccc3c2[nH]1 | 0.241 |  | 0.278 | > 100 | 0.418 | > 100 | 0.41 | > 100 µM | 0.0966 | > 100 | 0.35 | > 100 µM | 0.46 | > 100 |  |  | 0.231 | 0.678 µM |  |  |
| [O-]c1ccccc1/C=N/C(/N=C/c1ccccc1[O-])c1ccccc1O.[O-]c1ccccc1/C=N/C(/N=C/c1ccccc1[O-])c1ccccc1O.[Zr+4] | 30.6 | > 100 µM | 46.6 | > 100 |  |  | 34 | > 100 µM | 26.1 | > 100 | 23.1 | > 100 µM | 43.6 | > 100 | 33.4 | > 100 |  |  | 14.4 | 98.7 |
| Cc1nn(-c2ccc([N+](=O)[O-])cc2)c2ncnc(N/N=C/c3ccccc3O)c12 | 0.31 |  | 0.299 | 2.2 | 0.864 | 3.76 | 0.34 | 1.46 µM | 0.202 | 4.62 | 0.497 | > 22.1 µM | 0.942 | 7.78 | 1.47 | 8.56 | 0.986 | 3.76 µM |  |  |
| COc1ccc(CC(=O)c2ccc(O)cc2O)cc1 | 40.9 | > 100 µM | > 100 | > 100 | 63.5 | > 100 | 56.1 | > 100 µM | > 100 | > 100 | > 100 | > 100 µM |  |  | > 100 | > 100 | 93 | > 100 µM | 15.4 | > 100 |
| CCc1cccc(C)c1NC(=O)C1=C(C)NC(C)=C(C(=O)Nc2c(C)cccc2CC)C1c1ccc2c(c1)OCO2 |  | 57.1 µM |  | 33.8 |  | 31.4 |  | 45.5 µM |  | 66.1 |  | 92.5 µM |  | 80.1 |  | 46.3 |  |  |  | 28.7 |
| Cc1nn(-c2ccc(Cl)cc2)c2nc3c(nc12)C(=O)C(=O)c1ccccc1-3 | 4.32 | > 100 µM | 1.89 | 4.1 | 1.71 | 3.88 |  |  | 6.08 | > 100 | > 100 | > 100 µM |  |  | 3.24 | 11.9 | 8.45 | 34.4 µM | 1.82 | 7.14 |
